Source: PubChem BioAssay (NCI)
“And” between values parts separate entries of the source, which are not always exact repeats. Equal values may be shown once.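 In this assay, cells in 96-well plates receive the compound at five concentrations for 48 hours. Endpoints are linearly interpolated between the surrounding concentrations. GI50: concentration for 50% inhibition of growth. TGI: total growth inhibition.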

What was measured:
Test in all cases: DTP human tumour cell line panel, 48 h
[1] = system: ACHN renal
[2] = system: CAKI-1 renal
[3] = system: HCT-116 colon
[4] = system: MCF7 breast
[5] = system: NCI-H522 lung
[6] = system: NCI/ADR-RES ovarian
[7] = system: OVCAR-3 ovarian
[8] = system: PC-3 prostate
[9] = system: SF-268 CNS
[10] = system: TK-10 renal

SMILES	GI50 [1]	TGI [1]	GI50 [2] [µM]	TGI [2]	GI50 [3]	TGI [3]	GI50 [4]	TGI [4]	GI50 [5]	TGI [5]	GI50 [6]	TGI [6]	GI50 [7]	TGI [7]	GI50 [8] [µM]	TGI [8]	GI50 [9] [µM]	TGI [9]	GI50 [10]	TGI [10]
COc1cc(/C=C/c2cc(/C=C/c3ccc(O)c(OC)c3)n(C(=O)Nc3ccc(C)cc3)n2)ccc1O	0.396 µM	7.42 µM	0.311	6.95 µM	0.296 µM	1.53 µM	0.4 µM	2.97 µM	0.235 µM	0.909 µM	0.429 µM	> 100 µM	0.417 µM	1.99 µM	0.404	2.53 µM	0.628	7.44 µM	0.874 µM	5.81 µM
O=c1c(Oc2ccc(F)cc2F)cc2cnc(NC3CCOCC3)nc2n1C1CC1	> 25 µM	> 25 µM	> 25	> 25 µM	> 25 µM	> 25 µM	> 25 µM	> 25 µM	> 25 µM	> 25 µM	> 25 µM	> 25 µM	> 25 µM	> 25 µM	> 25	> 25 µM	> 25	> 25 µM	19.8 µM	> 25 µM
O=S(=O)(Nc1ccccc1)c1ccc(C2CC3(Cl)C(Cl)=C(Cl)C2(Cl)C3(Cl)Cl)cc1 (stereo not given)	3.37 µM	10.5 µM	2.16	6.27 µM	1.81 µM	3.44 µM	2.59 µM	7.67 µM	2.27 µM	5.67 µM	2.95 µM	7.98 µM	2.18 µM	4.13 µM	2.74	10.2 µM	3.8	12.8 µM	4.4 µM	14.6 µM
C=C(C)c1nc(Oc2ccccc2)nc(Oc2ccccc2)n1		23 µM		4.44 µM		10.5 µM		12.6 µM		2.73 µM		29.7 µM		15.2 µM		27.8 µM		16.2 µM		14 µM
CNS(=O)(=O)Nc1nccc(Cc2c(C)c3ccc(Oc4ncccn4)cc3oc2=O)c1F	4.92 µM and > 2.21 µM	> 100 µM	1.34	> 100 µM	0.07 µM and 0.103 µM	> 100 µM	57 µM and > 10 µM	> 100 µM	22.3 µM and > 10 µM	> 100 µM	20.2 µM and > 10 µM	> 100 µM	24.5 µM and > 10 µM	> 100 µM	> 100	> 100 µM	> 86	> 100 µM	0.184 µM and 0.0841 µM	> 100 µM
N=C(N)SCc1ccc(Cl)c2ccccc12 (tested in a mixture with another compound)		25.1 µM and 25.8 µM		19.2 µM and 24.4 µM		24.5 µM and 28.2 µM		24.7 µM and 27.9 µM		18.7 µM and 23.9 µM		48.1 µM and 55.2 µM		23.6 µM and 25 µM		24.3 µM and 25.3 µM		33.3 µM and 33.5 µM		20.9 µM and 19.7 µM
O=C1NC(=O)C2C3C=CC(C12)C1C2C(=O)NC(=O)C2C31 (stereo not given)	766 µM	> 1000 µM	568	250 µM and > 1000 µM	> 39.9 µM and 308 µM	> 55.9 µM and 250 µM and > 1000 µM	537 µM	250 µM and > 1000 µM	261 µM	235 µM and 864 µM	> 1000 µM	> 1000 µM	> 909 µM	250 µM and > 1000 µM	525	250 µM and > 1000 µM	> 896	> 1000 µM	695 µM	> 1000 µM
